What was measured:
[1] = molecular target: T1, interaction between the KRAS protein subtype G12D and the SOS1 protein (Homo sapiens, UniProt Q07889); experiment: Inhibition of the interaction between KRAS G12D and SOS1 protein (AlphaLISA/AlphaScreen); type: binding; conditions: KRAS G12D + GST-TEV-SOS1(564-1049) + GDP
T1 construct: GST-TEV-SOS1(564-1049) (Viva Biotech, SOS1-191010); purchased SOS1: Viva Biotech; KRAS: Shanghai Panchao Biotechnology Co., Ltd. SOS1-191010
T1 sequence (Q07889 564-1049): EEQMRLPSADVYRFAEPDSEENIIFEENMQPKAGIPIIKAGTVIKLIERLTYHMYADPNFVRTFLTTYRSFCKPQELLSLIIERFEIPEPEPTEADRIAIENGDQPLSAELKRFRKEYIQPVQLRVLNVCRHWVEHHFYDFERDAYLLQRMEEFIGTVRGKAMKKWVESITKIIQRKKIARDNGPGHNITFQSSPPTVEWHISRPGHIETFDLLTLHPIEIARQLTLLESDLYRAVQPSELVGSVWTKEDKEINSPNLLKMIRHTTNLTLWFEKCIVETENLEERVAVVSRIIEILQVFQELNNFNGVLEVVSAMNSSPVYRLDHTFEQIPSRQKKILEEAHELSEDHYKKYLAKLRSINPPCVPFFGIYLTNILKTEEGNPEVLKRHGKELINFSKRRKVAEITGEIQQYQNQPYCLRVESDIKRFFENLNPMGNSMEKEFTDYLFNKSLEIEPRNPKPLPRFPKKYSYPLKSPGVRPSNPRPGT
How it was run: (§1)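 Biotinylated KRAS G12D or G12V preincubated with SOS1 and GDP, then with compound (10-point 5-fold series from 40 μM) for 30 min at room temperature in PBS, 0.1% BSA, 0.05% Tween 20. Glutathione acceptor/streptavidin donor beads added for 60 min; Alpha signal read and IC50 calculated.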

[2] = molecular target: T2, interaction between the KRAS protein subtype G12V and the SOS1 protein (Homo sapiens, UniProt Q07889); experiment: Inhibition of the interaction between KRAS G12V and SOS1 protein (AlphaLISA/AlphaScreen); type: binding; conditions: KRAS G12V + GST-TEV-SOS1(564-1049) + GDP
T2 construct: GST-TEV-SOS1(564-1049) (Viva Biotech, SOS1-191010); purchased SOS1: Viva Biotech; KRAS: Shanghai Panchao Biotechnology Co., Ltd. SOS1-191010
T2 sequence (Q07889 564-1049): T1 sequence (Q07889 564-1049)
How it was run: as §1

[3] = tested on: ERK phosphorylation of H358 cells; experiment: Inhibition of ERK phosphorylation of H358 cells (HTRF pERK/total ERK); type: cell-based; conditions: Homo sapiens, NCI-H358, 1 h incubation, pERK/total ERK ratio
How it was run: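 H358 (KRAS G12C) cells were treated 1 h at 37°C with compound, 9 points by 5-fold dilution from 10 μM (final), 0.1% DMSO blank. Lysates were probed by HTRF with phospho-ERK1/2 and total-ERK1/2 antibodies overnight at room temperature, and IC50 was fitted from the pERK/total ERK ratio.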

- IC50 [1]: 20 nM
- IC50 [2]: 67 nM
Structure (SMILES): Cc1nc(N[C@H](C)c2cccc(C(F)F)c2F)c2cc([C@]3(O)CC[C@@H](O)CC3)c(=O)[nH]c2n1 [Example 18-p1, 4-(((R)-1-(3-(difluoromethyl)-2-fluorophenyl)ethyl)amino)-6-((1s,4S)-1,4-dihydroxycyclohexyl)-2-methylpyrido[2,3-d]pyrimidin-7(8H)-one]
- IC50 [3]: 51 nM

— patent publication US20230219951A1, “PYRIDINE-PYRIMIDINE DERIVATIVE, PREPARATION METHOD THEREFOR AND PHARMACEUTICAL USE THEREOF” (Jiangsu Hengrui Pharmaceuticals Co., Ltd., priority 2020, published 2023)
